Like-named read-outs stand apart in the source and are kept apart here.
Key:
[1] = system: amphetamine-induced rats; test: Amphetamine-induced locomotor activity and stereotypic behaviour, open field arena (Example 2, Studies 1, 2, 4); format: in vivo, rat; conditions: for normalised total stereotypic behaviour, compared to vehicle-amphetamine group / total distance travelled, compared to vehicle-amphetamine group: amphetamine at t=30 min; for locomotor activity compared to the vehicle-amphetamine group (conclusion) / stereotypic behaviour compared to the vehicle-amphetamine group (conclusion): risperidone 1 mg/kg
Description: Dopaminergic models for Tourette's syndrome use systemic or focal administration of dopamine agonists such as amphetamine. After injection with amphetamine, a test animal expresses stereotypic behaviour. In particular, involvement of a dopaminergic system implicated in Tourette's syndrome wild type mice and rats can be stimulated with amphetamine and the resulting hyperactivity and stereotypies can be reversed with dopamine antagonists such as risperidone and haloperidol (Tourette's syndrome—Animal Models for Screening, Charles River Discovery Research Services, Finland).
(§1) All animal experiments were carried out according to the National Institute of Health (NIH) guidelines for the care and use of laboratory animals, and approved by the National Animal Experiment Board, Finland. Male CD (Charles River Laboratories, Germany) at weight range of 200-250 g (165-200 g upon arrival) were used for the experiments. Animals were housed at a standard temperature (22±1° C.) and in a light-controlled environment (lights on from 7 am to 8 pm) with ad libitum access to food and water.
(§2) Locomotor activity of the rats was tested in open field arena. The open field test was performed during the rat light cycle and under a normal lighting evenly distributed to the test chambers. The paths of the rats were recorded by activity monitor (Med. Associates Inc.).
(§3) Dosing the vehicle, vehicle-amphetamine, (+)-α-DHTBZ or risperidone was done prior to LMA test. The rats were placed in the centre of the arena, and the path was recorded for 60 minutes.
(§4) Animals were grouped as follows: • Group 1: 10 rats treated with Vehicle (t=0 min) and Vehicle (t=30 min) • Group 2: 10 rats treated with Vehicle (t=0 min) and Amphetamine (t=30 min) • Group 3: 10 rats treated with (+)-α-DHTBZ 0.5 mg/kg (t=0 min) and Amphetamine (t=30 min) • Group 4: 10 rats treated with (+)-α-DHTBZ 1 mg/kg (t=0 min) and Amphetamine (t=30 min) • Group 5: 10 rats treated with (+)-α-DHTBZ 1.5 mg/kg (t=0 min) and Amphetamine (t=30 min) • Group 6: 10 rats treated with (+)-α-DHTBZ 2 mg/kg (t=0 min) and Amphetamine (t=30 min) • Group 7: 10 rats treated with risperidone 1 mg/kg (t=0 min) and Amphetamine (t=30 min)
Rats dosed with either vehicle, (+)-α-DHTBZ 0.5 mg/kg, (+)-α-DHTBZ 1 mg/kg, (+)-α-DHTBZ 1.5 mg/kg, (+)-α-DHTBZ 2 mg/kg or Risperidone 1 mg/kg were subjected to LMA testing first for 30 min and then for 60 minutes after vehicle or amphetamine challenge. Resulting locomotor activity was evaluated in 3 min bins and as a total over the testing period.
Rats dosed with either vehicle, (+)-α-DHTBZ 0.5 mg/kg, (+)-α-DHTBZ 1 mg/kg, (+)-α-DHTBZ 1.5 mg/kg, (+)-α-DHTBZ 2 mg/kg or Risperidone 1 mg/kg were subjected to LMA testing first for 30 min and then for 60 minutes after vehicle or amphetamine challenge. Resulting stereotypic activity was evaluated in 3 min bins and as a total over the testing period.
Animals were grouped as follows: • Group 1: 10 rats treated with Vehicle (t=0 min) and Vehicle (t=30 min) • Group 2: 10 rats treated with Vehicle (t=0 min) and Amphetamine (t=30 min) • Group 3: 10 rats treated with (+)-α-DHTBZ 0.1 mg/kg (t=0 min) and Amphetamine (t=30 min) • Group 4: 10 rats treated with (+)-α-DHTBZ 0.25 mg/kg (t=0 min) and Amphetamine (t=30 min) • Group 5: 10 rats treated with risperidone 1 mg/kg (t=0 min) and Amphetamine (t=30 min)
as §4, with “(+)-α-DHTBZ 1” for “(+)-α-DHTBZ 0.5”, “(+)-α-DHTBZ 1.5” for “(+)-α-DHTBZ 1”, “with Valbenazine 1” for “with (+)-α-DHTBZ 1.5”, “with Valbenazine 1.5” for “with (+)-α-DHTBZ 2”

[2] = system: non-amphetamine induced rats; test: Locomotor activity and stereotypic behaviour in non-amphetamine induced rats, open field arena (Example 2, Study 3); format: in vivo, rat; conditions: Study 3, non-induced rats; (+)-α-DHTBZ 2.5 mg/kg or 5 mg/kg, risperidone 1 mg/kg
Description: as §1, §2, §3
Animals were grouped as follows: • Group 1: 10 rats treated with Vehicle • Group 2: 10 rats treated with (+)-α-DHTBZ 2.5 mg/kg • Group 3: 10 rats treated with (+)-α-DHTBZ 5 mg/kg • Group 4: 10 rats treated with risperidone 1 mg/kg

[3] = rats, administration of tetrabenazine or dihydrotetrabenazine; stereochemistry not disclosed; cited from earlier work
[4] = oral administration of tetrabenazine, four patients affected by tardive dyskinesia; cited from earlier work
[5] = system: patients suffering from tardive dyskinesia; conditions: cited from earlier work
[6] = system: Tardive Dyskinesia sufferers; conditions: 80 mg/day; cited from earlier work
[7] = oral administration of tetrabenazine, patients treated for involuntary movement disorders; cited from earlier work
[8] = Study 1, (+)-α-DHTBZ at all the tested doses (0.5, 1, 1.5, 2 mg/kg)

## Cc1nc2n(c(=O)c1CCN1CCC(c3noc4cc(F)ccc34)CC1)CCCC2 [risperidone, reference compound]
[1]; Study 1, 1 mg/kg
  normalised total stereotypic behaviour, compared to vehicle-amphetamine group: significantly different
[1]; [8]
  locomotor activity compared to the vehicle-amphetamine group (conclusion): lower locomotor activity
  stereotypic behaviour compared to the vehicle-amphetamine group (conclusion): reduced stereotypic behaviour
[1]; Study 2, 1 mg/kg
  normalised total stereotypic behaviour, compared to vehicle-amphetamine group: significantly different
[1]; Study 2, (+)-α-DHTBZ at 0.25 mg/kg
  locomotor activity compared to the vehicle-amphetamine group (conclusion): lower locomotor activity
[1]; Study 2, (+)-α-DHTBZ at both the tested doses (0.1, 0.25 mg/kg)
  stereotypic behaviour compared to the vehicle-amphetamine group (conclusion): reduced stereotypic behaviour
[1]; Study 4, 1 mg/kg
  normalised total stereotypic behaviour, compared to vehicle-amphetamine group: significantly different
  total distance travelled, compared to vehicle-amphetamine group: significantly different
[2]
  total movement compared to rats treated with the vehicle: reduced total movement
  total stereotypic behaviour compared to rats treated with the vehicle: reduced total stereotypic behaviour

## COc1cc2c(cc1OC)C1CC(O)C(CC(C)C)CN1CC2 (stereo not drawn) [dihydrotetrabenazine, 2-hydroxy-3-(2-methylpropyl)-1,3,4,6,7,11b-hexahydro-9,10-dimethoxy-benzo(a)quinolizine]
[3]
  crossing of the blood-brain barrier: able to cross the blood-brain barrier
[4]
  plasma concentrations: relatively high concentrations

## COc1cc2c(cc1OC)[C@H]1C[C@@H](OC(=O)[C@@H](N)C(C)C)[C@H](CC(C)C)CN1CC2 [Valbenazine, reference compound]
[1]; Study 4, 1 mg/kg
  normalised total stereotypic behaviour, compared to vehicle-amphetamine group: significantly different
  total distance travelled, compared to vehicle-amphetamine group: significantly different
[1]; Study 4, 1.5 mg/kg
  normalised total stereotypic behaviour, compared to vehicle-amphetamine group: significantly different
  total distance travelled, compared to vehicle-amphetamine group: significantly different
[5]; 50 mg/day
  symptoms scored with the abnormal involuntary movement scale (AIMS): did not show any significant signs of improvement
[5]; 100 mg/day
  symptoms scored with the abnormal involuntary movement scale (AIMS): some reduction of symptoms
[6]
  Abnormal Involuntary Movement Score: significant improvement

## COc1cc2c(cc1OC)C1CC(=O)C(CC(C)C)CN1CC2 (stereo not drawn) [tetrabenazine, 1,3,4,6,7,11b-hexahydro-9,10-dimethoxy-3-(2-methylpropyl)-2H-benzo(a)quinolizin-2-one]
[4]
  plasma concentrations: low plasma concentrations
[7]
  plasma concentrations: very low plasma concentrations
